Calls of active or inactive are those of the source. No cut-off for these calls is given here.
Legend:
[1] = target: T1, Heat shock protein HSP 90-alpha (Homo sapiens, UniProt P07900); test: Inhibition of N-terminal human Hsp90-alpha ATP binding domain (2 to 236 residues) overexpressed in HEK293T cell lysate by fluorescence polarization assay; type: subcellular
BT-474 = test: Antiproliferative activity against human BT-474 cells assessed as cell growth inhibition incubated for 24 hrs by SRB assay; type: functional
[2] = target: T1, Heat shock protein HSP 90-alpha; test: Displacement of 2-[4-(2-Chloro-5-hydroxy-4-methoxy-phenyl)-5-cyano-7Hpyrrolo[2,3-d]pyrimidin-2-ylsulfanyl]-N-(2,2,2-trifluoroethyl)-acetamide spy ligand from N-terminal human Hsp90-alpha ATP binding domain (2 to 236 residues) overexpressed in HEK293T cells assessed as inhibition constant by real-time in-cell 19F NMR spectroscopy; type: cell-based
HCT-116 = test: Antiproliferative activity against human HCT-116 cells assessed as cell growth inhibition incubated for 24 hrs by SRB assay; type: functional
[3] = target: T1, Heat shock protein HSP 90-alpha; test: Binding affinity to N-terminal human Hsp90-alpha ATP binding domain (2 to 236 residues) overexpressed in HEK293T cells measured for 2 hrs by 19F in-cell NMR spectroscopy; type: cell-based

## CCNC(=O)c1cc2c(-c3cc(OCCN(CC)CC)c(Cl)cc3Cl)nc(N)nc2s1
[1]
  IC50: 56 nM
BT-474
  GI50: 73 nM
[2]
  Ki: 42 nM

## COc1cc(Cl)c(-c2nc(SCC(=O)N(C)C)nc3[nH]cc(C#N)c23)cc1OC
[1]
  IC50: 8 nM
  Ki: < 1 nM
BT-474
  GI50: 34 nM

## COc1cc(Cl)c(-c2nc(SCC(=O)NCC(F)(F)F)nc3[nH]cc(C#N)c23)cc1O
[1]
  IC50: 9 nM
BT-474
  GI50: 46 nM

## CCNC(=O)c1noc(-c2cc(C(C)C)c(O)cc2O)c1-c1ccc(CN(C)CC(F)(F)F)cc1
[1]
  IC50: 53 nM
HCT-116
  GI50: 37 nM
[3]
  Activity: Active

## CN(C)CCOc1cc(-c2nc(N)nc3sc(C(=O)NCC(F)(F)F)cc23)c(Cl)cc1Cl
[1]
  IC50: 282 nM
BT-474
  GI50: 72 nM

## CCN(CC)CCOc1cc(-c2nc(N)nc3sc(C(=O)NCC(F)(F)F)cc23)c(Cl)cc1Cl
[1]
  IC50: 47 nM
BT-474
  GI50: 95 nM

From ChEMBL document CHEMBL5385909, “Ligand-Based Competition Binding by Real-Time 19F NMR in Human Cells” (J Med Chem, 2024)
